Measurements: the supplement of paper PMC12420376

Columns and labels:
[1] = test system: OVCAR8; test: cancer cell viability relative to untreated control; higher = less cytotoxic; settings: 72 h
Procedure: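 KURAMOCHI or OVCAR8 cells were grown in monoculture or in co-culture with WI38 or patient-derived 030F fibroblasts and treated for 72 h with a dose matrix of carboplatin combined with birinapant or vorinostat (doses in nM). Cancer cell viability was measured by CK8/18 immunofluorescence imaging and expressed as % of untreated control, given as mean with SD.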

[2] = test system: Gem105 (ex vivo spheroids of an HRD-negative high-grade serous ovarian cancer); test: cell viability relative to untreated control (ex vivo patient spheroids); higher = less cytotoxic; settings: 72 h
Procedure: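 Ex vivo 3D spheroid cultures from dissociated tumours of HGSOC patients (DET3CT platform) were treated for 72 h with dose matrices of carboplatin combined with birinapant or vorinostat (nM). Live (TMRM) and dead (POPO-1) cells were imaged and viability was expressed as % of untreated control.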

O=C(O)C1(C(=O)O)CCC1.[NH2-].[NH2-].[Pt+2] [Carboplatin] + CC[C@H](NC(=O)[C@H](C)NC)C(=O)N1C[C@@H](O)C[C@H]1Cc1c(-c2[nH]c3cc(F)ccc3c2C[C@@H]2C[C@H](O)CN2C(=O)[C@H](CC)NC(=O)[C@H](C)NC)[nH]c2cc(F)ccc12 [Birinapant]
cancer cell viability [%], [1]
Settings | partner drug concentration 0 nM | partner drug concentration 0.1 nM | partner drug concentration 1 nM | partner drug concentration 10 nM | partner drug concentration 100 nM | partner drug concentration 1000 nM
carboplatin concentration 10 nM, co-cultured fibroblast: 030F | 95.9 | 93.4 | 86.9 | 85.6 | 53.2 | 11.3
carboplatin concentration 10 nM, co-cultured fibroblast: WI38 | 112 | 112 | 98.5 | 99.2 | 59.9 | 9.28
carboplatin concentration 10 nM, co-cultured fibroblast: none (monoculture) | 100 | 107 | 102 | 96.1 | 68.1 | 14.5
carboplatin concentration 100 nM, co-cultured fibroblast: 030F | 97.7 | 89.9 | 85.8 | 92.3 | 46 | 12.3
carboplatin concentration 100 nM, co-cultured fibroblast: WI38 | 103 | 101 | 102 | 98.1 | 52.4 | 10.8
carboplatin concentration 100 nM, co-cultured fibroblast: none (monoculture) | 101 | 99.5 | 101 | 103 | 71.7 | 13.4
carboplatin concentration 1000 nM, co-cultured fibroblast: 030F | 96.9 | 83.5 | 90.8 | 96.9 | 50.5 | 14.7
carboplatin concentration 1000 nM, co-cultured fibroblast: WI38 | 107 | 98.1 | 104 | 92.6 | 56.6 | 9.2
carboplatin concentration 1000 nM, co-cultured fibroblast: none (monoculture) | 101 | 102 | 98.6 | 105 | 79.7 | 16.3
carboplatin concentration 1e+05 nM, co-cultured fibroblast: 030F | 23.2 | 34.9 | 41.2 | 34.2 | 15.9 | 8.74
carboplatin concentration 1e+05 nM, co-cultured fibroblast: WI38 | 10.6 | 36.2 | 51.3 | 40.3 | 21.4 | 3
carboplatin concentration 1e+05 nM, co-cultured fibroblast: none (monoculture) | 23.1 | 61 | 58.4 | 60.6 | 46.2 | 6.42
carboplatin concentration 10000 nM, co-cultured fibroblast: 030F | 52.3 | 72.4 | 90.8 | 85.1 | 34.3 | 9.13
carboplatin concentration 10000 nM, co-cultured fibroblast: WI38 | 41.6 | 82.3 | 89.1 | 95.9 | 49.7 | 7.2
carboplatin concentration 10000 nM, co-cultured fibroblast: none (monoculture) | 56.5 | 90.3 | 92.5 | 100 | 64.8 | 12.6

cell viability [%], [2]
Settings | partner drug concentration 0 nM | partner drug concentration 0.1 nM | partner drug concentration 1 nM | partner drug concentration 10 nM | partner drug concentration 100 nM | partner drug concentration 1000 nM
carboplatin concentration 10 nM | – | 102 | 90.8 | 94.9 | 105 | 72.5
carboplatin concentration 100 nM | – | 102 | 82 | 100 | 89.4 | 79.4
carboplatin concentration 1000 nM | – | 110 | 89.4 | 109 | 89.2 | 87.6
carboplatin concentration 10000 nM | 91.9 | 97.7 | 83.8 | 92.5 | 80 | 81.6
carboplatin concentration 100000 nM | 38.7 | 41.1 | 51.4 | 42.1 | 30.3 | 27.6

O=C(O)C1(C(=O)O)CCC1.[NH2-].[NH2-].[Pt+2] [Carboplatin] + O=C(CCCCCCC(=O)Nc1ccccc1)NO [Vorinostat]
cancer cell viability [%], [1]
Settings | partner drug concentration 0 nM | partner drug concentration 1 nM | partner drug concentration 10 nM | partner drug concentration 100 nM | partner drug concentration 1000 nM | partner drug concentration 10000 nM
carboplatin concentration 10 nM, co-cultured fibroblast: 030F | 95.9 | 98.7 | 97.7 | 61.9 | 16.7 | 1.47
carboplatin concentration 10 nM, co-cultured fibroblast: WI38 | 112 | 95.4 | 93.8 | 57.2 | 13 | -0.353
carboplatin concentration 10 nM, co-cultured fibroblast: none (monoculture) | 100 | 118 | 106 | 77.6 | 12.5 | -1.11
carboplatin concentration 100 nM, co-cultured fibroblast: 030F | 97.7 | 88.3 | 82.6 | 53.7 | 17.5 | 0.669
carboplatin concentration 100 nM, co-cultured fibroblast: WI38 | 103 | 98.1 | 88.4 | 53.3 | 11.5 | -0.268
carboplatin concentration 100 nM, co-cultured fibroblast: none (monoculture) | 101 | 108 | 109 | 58.4 | 20.6 | -0.748
carboplatin concentration 1000 nM, co-cultured fibroblast: 030F | 96.9 | 93 | 94.1 | 50.7 | 15.3 | 1.7
carboplatin concentration 1000 nM, co-cultured fibroblast: WI38 | 107 | 96.1 | 86 | 45.4 | 14.6 | -0.251
carboplatin concentration 1000 nM, co-cultured fibroblast: none (monoculture) | 101 | 111 | 102 | 63.4 | 17.2 | -1.67
carboplatin concentration 1e+05 nM, co-cultured fibroblast: 030F | 23.2 | 30.2 | 32.9 | 22.8 | 15.3 | 0.46
carboplatin concentration 1e+05 nM, co-cultured fibroblast: WI38 | 10.6 | 34.2 | 33.1 | 22.9 | 13.3 | -0.83
carboplatin concentration 1e+05 nM, co-cultured fibroblast: none (monoculture) | 23.1 | 57.5 | 51.6 | 24.6 | 17.1 | -3.4
carboplatin concentration 10000 nM, co-cultured fibroblast: 030F | 52.3 | 78.3 | 64.7 | 37.2 | 19.1 | 1.01
carboplatin concentration 10000 nM, co-cultured fibroblast: WI38 | 41.6 | 74.9 | 68.8 | 47.1 | 19 | -0.481
carboplatin concentration 10000 nM, co-cultured fibroblast: none (monoculture) | 56.5 | 89.7 | 89.7 | 65.2 | 26.8 | -0.768

cell viability [%], [2]
Settings | partner drug concentration 0 nM | partner drug concentration 1 nM | partner drug concentration 10 nM | partner drug concentration 100 nM | partner drug concentration 1000 nM | partner drug concentration 10000 nM
carboplatin concentration 10 nM | 105 | 82.6 | 99.6 | 94.3 | 86.4 | 33.3
carboplatin concentration 100 nM | 103 | 90.7 | 96.2 | 93.6 | 84.9 | 34.5
carboplatin concentration 1000 nM | 89.2 | 102 | 93.5 | 112 | 84.8 | 39.9
carboplatin concentration 10000 nM | 91.9 | 105 | 93.4 | 100 | 79.4 | 36
carboplatin concentration 100000 nM | 38.7 | 52.6 | 54 | 53.8 | 31.9 | 10.5
